Test results from patent publication EP0022621A1, “Peptides related to somatostatin, their preparation and pharmaceutical compositions containing them” (ELI LILLY AND COMPANY, priority 1979, dated 1981).
Several values for one entry are separate records, joined by “and”; a condition that tells them apart may be missing. Identical values can stand only once. Positions of bridges follow the written chain, without caps; N, C: chain ends. No end group written: not given here.

Legend:
insulin = assay: Insulin and Glucagon Inhibition In Dogs (L-alanine stimulation, serum insulin by radioimmunoassay); type: in vivo, dog; conditions: for Result: inhibition of insulin: fasted dog, L-alanine infusion; for inhibition of secretion of insulin: dog stimulated with L-alanine, dose not stated
Description: (§1) B. Insulin and Glucagon Inhibition In Dogs:
(§2) A normal dog is fasted overnight. An intravenous (I.V.) infusion of the test compound (dissolved in saline) is begun. Thirty minutes thereafter an additional infusion of L-alanine (dissolved in saline) is begun and is continued for a total of 15 minutes so that a total dose of about 1 mmole of L-alanine per kg. body weight is given. Infusion of the test compound is continued for an additional 15 minute period.
(§3) Blood samples are taken periodically before (at -20, -10 and -1 minutes) and after (5, 10, 15, 30, 35, 40, 45, 50, 60, 90, 120 and 150 minutes) the start of the infusion of the test compound. The serum insulin and serum glucagon concentrations in the blood are determined by radioimmunoassay. A plot is made of the glucagon and insulin concentrations versus time. The plot obtained from the test compound is compared to plots obtained from somatostatin and saline (controls) in similar experiments.
(§4) Infusion of L-alanine (in the absence of somatostatin or active test compound) causes an abrupt increase in serum insulin and glucagon concentrations. The concentrations return to basal levels after the L-alanine infusion is terminated. Infusion of somatostatin (alone) causes a decrease in basal serum concentrations of insulin and glucagon.

[1] = system: growth hormone (GH) secretion; assay: Growth Hormone Inhibition In Rats (pentobarbital-stimulated GH secretion, serum GH by radioimmunoassay); type: in vivo; conditions: for GH Serum Conc.: male rats, sodium pentobarbital 4 mg/rat I.P., 20 minutes, Mean ± SEM; for % Inhibition: inhibition of GH release compared to saline controls
Description: A. Growth Hormone Inhibition In Rats:
This test is a modification of the method of P. Brazeau et al. Endocrinology, 94, 184 (1974). Male rats (weighing 100-110 g.) are divided into three groups of eight rats each. Each rat is administered sodium pentobarbital at a dose of 4 mg/rat (I.P.) to stimulate growth hormone (GH) secretion. Simultaneously, one group of rats receives the test compound (S.C.); the second group receives somatostatin (S.C.); and the third group (control) receives saline (S.C.). Twenty- minutes later, the animals are decapitated and blood samples are collected. The serum concentration of growth hormone (GH) is determined by'radioimmunoassay. The mean GH concentration (+ standard error of the mean) is calculated for each group. The percent inhibition of GH release (as compared to saline controls) is then calculated for the test compound and for somatostatin. When tested as above-described, the peptides of Examples 2, 4, 6, 8 and 10, representative of the peptides of Formula III, gave the results set forth below in Table I: […]

glucagon = assay: Insulin and Glucagon Inhibition In Dogs (L-alanine stimulation, serum glucagon by radioimmunoassay); type: in vivo, dog; conditions: for Result: inhibition of glucagon: fasted dog, L-alanine infusion; for inhibition of secretion of glucagon: dog stimulated with L-alanine, dose not stated
Description: as §1, §2, §3, §4

[2] = I.V. infusion dose 0.05 µg/kg/min
[3] = I.V. infusion dose 0.098, 0.181, 0.291 µg/kg/min
[4] = I.V. infusion dose 0.06 µg/kg/min
[5] = I.V. infusion dose 0.20 µg/kg/min
[6] = infusion alone, without L-alanine, dog

| Substance | Result: inhibition of insulin (insulin; [2]) | inhibition of secretion of insulin (insulin) | GH Serum Conc. ([1]; dose 2 µg/kg S.C.) [ng/mL] | GH Serum Conc. ([1]; dose 50 µg/kg S.C.) [ng/mL] | % Inhibition ([1]; dose 2 µg/kg S.C.) [%] | % Inhibition ([1]; dose 50 µg/kg S.C.) | Result: inhibition of glucagon (glucagon; [2]) | inhibition of secretion of glucagon (glucagon) | other results |
| --- | --- | --- | --- | --- | --- | --- | --- | --- | --- |
| D-Alanyl-glycyl-L-cysteinyl-L-lysyl-D-alanyl-L-phenylalanyl-L-phenylalanyl-D-tryptophyl-L-lysyl-L-threonyl-L-cyclohexylalanyl-L-threonyl-L-seryl-D-cysteine cyclic (3 -> 14) disulfide [Example 4] | No inhibition of glucagon and insulin | did not inhibit | 5.5 ± 0.7 | 8.4 ± 3.4 | 95 | 92% | No inhibition of glucagon and insulin | did not inhibit |  |
| D-Alanyl-glycyl-L-cysteinyl-L-lysyl-D-alanyl-L-phenylalanyl-L-phenylalanyl-D-tryptophyl-L-lysyl-L-threonyl-L-phenylalanyl-L-threonyl-L-seryl-D-cysteine cyclic (3 -> 14) disulfide [Example 2] |  | did not inhibit | 7.1 ± 3.8 | 2.0 ± 0.3 | 94.9 | 98.6% |  | did not inhibit | Result: inhibition of insulin (insulin; [3]): No inhibition of glucagon and insulin; GH Serum Conc. ([1]; dose 0.25 µg/kg S.C.): 51.0 ± 14.1 ng/mL; GH Serum Conc. ([1]; dose 1 µg/kg S.C.): 30.6 ± 16.0 ng/mL; GH Serum Conc. ([1]; dose 2.5 µg/kg S.C.): 14.8 ± 10.9 ng/mL; GH Serum Conc. ([1]; dose 25 µg/kg S.C.): 2.8 ± 0.2 ng/mL; % Inhibition ([1]; dose 0.25 µg/kg S.C.): 37.4%; % Inhibition ([1]; dose 1 µg/kg S.C.): 79.8%; % Inhibition ([1]; dose 2.5 µg/kg S.C.): 81.8%; % Inhibition ([1]; dose 25 µg/kg S.C.): 98.2%; Result: inhibition of glucagon (glucagon; [3]): No inhibition of glucagon and insulin |
| D-Seryl-glycyl-L-cysteinyl-L-lysyl-L-alanyl-L- phenylalanyl-L-phenylalanyl-D-tryptophyl-L-lysyl-L-threonyl-L-cyclohexylalanyl-L-threonyl-L-seryl-D- cysteine cyclic (3 -> 14) disulfide [Example 10] |  |  | 68.8 ± 28.2 | 2.2 ± 0.1 | 34 | 98% |  |  | Result: inhibition of insulin (insulin; [4]): Partial inhibition of glucagon and insulatum.; Result: inhibition of glucagon (glucagon; [4]): Partial inhibition of glucagon and insulatum. |
| D-Seryl-glycyl-L-cysteinyl-L-lysyl-L-alanyl-L-phenylalanyl-L-phenylalanyl-D-tryptophyl-L-lysyl-L-threonyl-D-phenylalanyl-L-threonyl-L-seryl-D-cysteine cyclic (3 -> 14) 4isulfide [Example 8] |  | did not inhibit | 79.6 ± 36.2 | 40.0 ± 13.4 | 0 | 39% |  | did not inhibit | Result: inhibition of insulin (insulin; [5]): No inhibition of glucagon and insulin; Result: inhibition of glucagon (glucagon; [5]): No inhibition of glucagon and insulin |
| D-Seryl-glycyl-L-cysteinyl-L-lysyl-L-alanyl-L-phenylalanyl-L-phenylalanyl-D-tryptophyl-L-lysyl-L-threonyl-L-phenylalanyl-L-threonyl-L-seryl-D-cysteine cyclic (3 -> 14) disulfide [Example 6] | Significant inhibition of glucagon and insulin |  | 15.5 ± 5.4 | 4.0 ± 0.5 | 79 | 95% | Significant inhibition of glucagon and insulin |  |  |
| Somatostatin (AGCKNFFWKTFTSC; disulfide 3-14 (inferred); ends not checked; UniProt P61278 103-116, looked up) [reference compound] |  | inhibits the increase |  |  |  | 86.7% and 52.5% and 57.9% and 91% and 93% and 64% and 98% |  | inhibits the increase | basal serum concentration of insulin (insulin; [6]): decrease; basal serum concentration of glucagon (glucagon; [6]): decrease |
